The results in this text go back to patent publication US20240327353A1.

In assay [1] the target is T1, 5-HT2CR (Homo sapiens, UniProt P28335).
T1 sequence (P28335 33-458): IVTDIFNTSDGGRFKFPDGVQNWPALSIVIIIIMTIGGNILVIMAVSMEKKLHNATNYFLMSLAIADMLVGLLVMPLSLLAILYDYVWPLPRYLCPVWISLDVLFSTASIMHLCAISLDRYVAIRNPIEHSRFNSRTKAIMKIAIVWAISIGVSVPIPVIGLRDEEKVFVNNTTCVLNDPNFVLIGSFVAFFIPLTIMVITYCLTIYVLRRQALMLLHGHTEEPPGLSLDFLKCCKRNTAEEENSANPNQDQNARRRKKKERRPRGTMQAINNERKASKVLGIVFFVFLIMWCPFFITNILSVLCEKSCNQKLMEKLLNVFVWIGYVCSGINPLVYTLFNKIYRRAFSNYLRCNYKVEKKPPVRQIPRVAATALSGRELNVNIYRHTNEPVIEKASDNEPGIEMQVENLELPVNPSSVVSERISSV
The assay can be described thus: Radioligand binding (competitive displacement and saturation), cell membranes.

Assay [2] deals with T2, 5-HT2AR (Homo sapiens, UniProt P28223).
T2 construct: host or cells: HEK293, transient
T2 sequence (P28223 whole entry): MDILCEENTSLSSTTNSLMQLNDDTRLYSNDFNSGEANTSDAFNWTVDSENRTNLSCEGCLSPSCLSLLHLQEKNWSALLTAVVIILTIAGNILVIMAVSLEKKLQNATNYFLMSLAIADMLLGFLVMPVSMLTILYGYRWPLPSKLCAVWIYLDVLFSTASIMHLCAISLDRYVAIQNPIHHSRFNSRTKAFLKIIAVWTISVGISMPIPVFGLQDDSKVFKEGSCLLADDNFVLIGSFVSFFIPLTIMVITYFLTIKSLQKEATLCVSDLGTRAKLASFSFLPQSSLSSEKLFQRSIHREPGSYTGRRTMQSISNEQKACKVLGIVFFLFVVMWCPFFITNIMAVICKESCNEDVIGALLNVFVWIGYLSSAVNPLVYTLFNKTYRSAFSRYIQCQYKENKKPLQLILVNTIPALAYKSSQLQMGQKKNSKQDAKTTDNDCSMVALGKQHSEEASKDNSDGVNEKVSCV
The description is as above. Conditions: for Ki: pKi 5-HT2AR. As to the method:
(§1) Transfections were performed for 48 hours.

Assay [3] concerns the target T3, 5-HT2BR (Homo sapiens, UniProt P41595). The assay is described as above.
Experimental: (§2) All cells were grown adherently in 10 cm plates in a humidified incubator kept at 37° C. and 5% carbon dioxide. […] Transient transfections were used to express 5-HT2A, 5-HT2C, α1A- or α1B-adrenergic receptors, whereas 5-HT7(a)Rs were stably expressed in HEK293 cells. H1Rs were transiently expressed, and D2Rs were stably expressed in CHO cells.
(§3) Transient transfections were performed on cells in the log growth phase (70-90% confluence). […] Each solution was mixed by inversion before combining, mixed by inversion again, and incubated at 37° C. for 30 minutes. Cells were then washed with 1 mL 1×PBS, followed by the gentle addition of 5 mL of transfection cocktail and 5 mL of cell culture medium with 5% (final) dialyzed FBS. Transfections were performed for 48 hours.
(§4) The affinity of ligands was determined via radioligand binding techniques using human recombinant receptors expressed in mammalian clonal cells.
(§5) Saturation binding experiments were performed on membranes expressing 5-HT2A, 5-HT2B, 5-HT2C, or H1Rs in triplicate across 8 concentrations. Competition binding assays were performed in at least triplicate with approximate Kd concentrations of radioligand. Total and nonspecific binding were determined in octet. […] Serial dilutions of unlabeled compound were made in assay buffer at 2.5× the final concentration using 10 mM DMSO stocks (final [DMSO]≤1%). Assays were terminated using rapid filtration via Whatman GF/B Fired Filters (Brandel Inc., Gaithersburg, MD) soaked in 0.3% (w/v) PEI, using an automated Tomtec Harvester 96 (Hamden, CT).
(§6) Filters were washed with 50 mM Tri-HCl (pH=7.4, 4° C.) before being oven dried and placed into scintillation vials containing 1 mL SX18-4 ScintiVerse^TM BD Cocktail (Fisher Chemical, Fair Lawn, NJ).
(§7) GraphPad Prism (La Jolla, CA) version 9.1.1 was used to analyze all experimental data in this work. To analyze data from saturation binding studies, the radioligand counts per minute (cpm) were normalized to fmol/mg protein bound and then fit the data to a ‘specific binding with hill slope’ model. For competitive radioligand displacement studies, a baseline correction was performed by subtracting the mean nonspecific binding value from the radioligand binding values with and without competitor to obtain specific binding values. Specific binding values were then normalized such that total binding in the absence of competitor represented 100% radioligand binding, and the radioactivity associated with each concentration of competitor was a percentage of total binding. The normalized data was then fit to the ‘one-site Fit Ki’ nonlinear regression model.
In assay [4] the target is T1, 5-HT2CR.
Experimental: as §2, §3, §4, §5, §6, §7
Assay [5] concerns the target T3, 5-HT2BR.
Experimental: as §2, §3, §4, §5, §6, §7
Assay [6] concerns the target T3, 5-HT2BR. The assay can be described thus: biochemical.
Experimental: as §2, §3, §4, §5, §6, §7
The target of assay [7] is D231F^5.35 5-HT2AR (Homo sapiens, UniProt P28223, D231F). The assay can be described thus: Exploratory saturation radioligand binding at point-mutated 5-HT2AR. The following applies: membranes of transfected HEK293 cells (FIGS. 14A-14D).
D231F^5.35 5-HT2AR, sequence (P28223 whole entry D231F): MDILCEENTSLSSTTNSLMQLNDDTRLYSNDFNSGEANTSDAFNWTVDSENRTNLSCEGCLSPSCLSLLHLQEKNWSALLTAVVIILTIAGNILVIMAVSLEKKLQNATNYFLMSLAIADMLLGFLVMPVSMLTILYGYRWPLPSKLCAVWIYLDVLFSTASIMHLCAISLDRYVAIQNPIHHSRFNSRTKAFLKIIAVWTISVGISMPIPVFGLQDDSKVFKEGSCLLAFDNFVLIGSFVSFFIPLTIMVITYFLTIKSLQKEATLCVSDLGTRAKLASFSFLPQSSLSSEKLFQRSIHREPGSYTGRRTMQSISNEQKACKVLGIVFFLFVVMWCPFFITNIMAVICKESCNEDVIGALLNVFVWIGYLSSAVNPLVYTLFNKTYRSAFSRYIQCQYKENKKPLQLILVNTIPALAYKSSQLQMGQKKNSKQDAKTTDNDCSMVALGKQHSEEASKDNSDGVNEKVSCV
Experimental: as §5
Site directed mutagenesis experiments were performed using 5′-phosphorylated, PAGE-purified custom primers (Life Technologies, Carlsbad CA) and the Quikchange Site-Directed Mutagenesis kit (Agilent, Santa Clara CA) according to the manufacturer's protocol. Reactions were performed in thin-walled PCR tubes using a TOne Gradient 96 Thermal Cycler (Biometra). Following Dpn1 digestion, 2 μL of the PCR product mixture was transformed into 50 μL XL1-Blue competent cells using a 45 second pulse of heat in a 42° C. water bath. The transformed bacteria were then incubated for 1 hour at 37° C. in 0.5 mL of LB broth before being plated on LB-agar plates and incubated overnight at 37° C. […]
Assay [8] concerns the target T4, H1R (Homo sapiens, UniProt P35367).
T4 construct: host or cells: CHO, transient
The assay can be described thus: Radioligand binding (competitive displacement and saturation), cell membranes. As to the method: as §1

Assay [9] concerns the target human wild-type 5-HT2C (Homo sapiens, UniProt P28335). The assay can be described thus: IP-One HTRF IP1 accumulation assay.
Experimental: as §3
The pharmacological parameters (e.g., pEC50, pKb, pIC50, Imax) of agonist and antagonist-mediated signal transduction through Gaq-coupled 5-HT2A, 5-HT2B, 5-HT2C, and H1Rs was quantified using the Cisbio (Bedford, MA) IP-One homogeneous time resolved fluorescence (HTRF) immunoassay. The protocol used was consistent with that recommended by the manufacturer for suspension cells in 384-well plate format, with minor modifications. […] Cells (˜2,000 cells/μL, >90% viability, determined by the Corning® Cell Counter) were resuspended in the manufacturer's stimulation buffer (pH=7.4, 37° C.) modified to include 0.1% bovine serum albumin stabilizer (PerkinElmer, part #: CR84-100) and added to a white 384-well OptiPlate (PerkinElmer). Next, stimulation buffer, or 2× compound diluted in stimulation buffer, was added to each well. […] Cells were then incubated in the dark for two hours at 37° C. to ensure equilibrium was obtained. Plates were covered with an aluminum foil seal to prevent evaporation.
Following incubation, the manufacturer's lysis solution (detection buffer) containing inositol monophosphate (IP1) covalently bound to a fluorescent acceptor dye (d2) was added to each well. This process generated a homogenous mixture of cellular and d2-labeled IP1, in a ratio dependent on the concentration- and activity-dependent efficacy of test ligands to modulate cellular IP1 levels. Next, detection buffer containing an anti-IP1 antibody covalently bound to a terbium-cryptate, which serves as a fluorescent acceptor, was added to each well. A one-hour incubation at room temperature was used to allow competitive interactions between cellular and d2-labeled IP1 to equilibrate with anti-IP1-cryptate. Time-resolved fluorescent resonance energy transfer (TR-FRET) was then quantified by a Synergy H1 plate reader equipped with a HTRF filter cube (BioTek).
The functional activity of each compound was determined by incubating cells expressing recombinant receptors with or without a compound of interest in parallel with well containing only buffer and 8 known concentrations of IP1 to generate a standard curve for each experiment. The IP1 concentration in cell-containing wells was then interpolated using nonlinear regression and the ‘log(inhibitor) vs. response (three parameters)’ model in Prism. To control for variation between assays, the resulting concentrations were transformed into molar units and change from basal was calculated using the following equation (Equation 1), where B is the basal concentration of IP, and Y is the concentration of IP generated by cells incubated with compound.
The same model was used to calculate the IC50 of inverse agonists in the absence of A. In contrast, the EC50 was derived from a log([agonist]) vs. response-variable slope (four parameters)’ model to simultaneously obtain K. Each Kb, IC50, and EC50 value was logarithmically transformed into the pKb, pIC50, and pEC50, respectively for ease of presentation and statistical analyses.
The target in assay [10] is T1, 5-HT2CR. Kind of assay: biochemical.
Experimental: as §2, §3, §4, §5, §6, §7
The mark [11] stands for this setting: displacement of [^3H]ketanserin, mean of n independent experiments, ± SD where n ≥ 5.

Where two headings read alike, the source gives them in different places.

T3 sequence (P41595 whole entry): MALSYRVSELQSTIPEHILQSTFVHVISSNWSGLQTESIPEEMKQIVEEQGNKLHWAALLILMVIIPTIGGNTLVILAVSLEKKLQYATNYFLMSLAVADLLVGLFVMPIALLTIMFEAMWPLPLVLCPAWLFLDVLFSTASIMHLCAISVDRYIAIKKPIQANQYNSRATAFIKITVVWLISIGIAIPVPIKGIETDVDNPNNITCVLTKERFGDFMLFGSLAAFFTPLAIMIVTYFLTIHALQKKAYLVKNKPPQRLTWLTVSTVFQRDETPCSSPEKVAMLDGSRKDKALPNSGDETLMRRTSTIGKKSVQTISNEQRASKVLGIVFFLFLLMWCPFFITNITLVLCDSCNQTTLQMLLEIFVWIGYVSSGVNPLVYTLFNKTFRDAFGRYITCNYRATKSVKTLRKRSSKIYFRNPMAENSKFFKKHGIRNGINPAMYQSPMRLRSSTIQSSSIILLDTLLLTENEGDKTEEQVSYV
T4 sequence (P35367 whole entry): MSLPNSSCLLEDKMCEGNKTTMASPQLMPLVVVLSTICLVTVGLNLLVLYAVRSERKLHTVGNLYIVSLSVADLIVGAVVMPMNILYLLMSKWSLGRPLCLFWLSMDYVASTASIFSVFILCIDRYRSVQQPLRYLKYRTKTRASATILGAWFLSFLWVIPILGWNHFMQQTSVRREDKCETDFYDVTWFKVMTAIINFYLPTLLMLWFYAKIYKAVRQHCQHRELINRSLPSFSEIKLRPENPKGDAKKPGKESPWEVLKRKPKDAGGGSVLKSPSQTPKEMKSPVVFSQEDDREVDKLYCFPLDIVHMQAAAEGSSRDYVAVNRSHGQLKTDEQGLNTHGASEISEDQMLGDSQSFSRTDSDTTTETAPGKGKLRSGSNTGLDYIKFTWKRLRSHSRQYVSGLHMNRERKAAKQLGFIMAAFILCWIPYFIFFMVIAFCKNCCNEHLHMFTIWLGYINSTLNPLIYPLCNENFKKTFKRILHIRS

Turning to `CN(C)[C@@H]1Cc2ccccc2[C@H](c2cccc(-c3ccncc3)c2)C1` (single isomer, unassigned) [(2S,4S)-3e, Cis-4-(3-(pyridin-4-yl)phenyl)-N,N-dimethyl-1,2,3,4-tetrahydronaphthalen-2-amine], the “pKi 5-HT2CR” value in assay [1] was 5.90^(2) 5.99-5.80 7.37^(3) 7.44-7.27 5.61^(2) 5.69-5.54 6.26^(2) 6.42-6.10. Moreover, the “pKi 5-HT2AR” value in assay [2] is on record as 6.06^(2) 6.14-5.98 8.13^(3) 8.51-7.82 5.81^(2) 6.01-5.62 7.36^(2) 7.48-7.24.

In the case of `CN(C)[C@@H]1Cc2ccccc2[C@H](c2cccc(-c3ccccc3F)c2)C1` (single isomer, unassigned) [(2S,4S)-3g, Cis-4-(2′-fluoro-[1,1′-biphenyl]-3-yl)-N,N-dimethyl-1,2,3,4-tetrahydronaphthalen-2-amine], the “pKi 5-HT2BR” value in assay [3] was 7.36^(2) 7.36-7.35 7.09^(3) 7.23-6.90 6.53^(3) 6.71-6.30 6.33^(2) 6.49-6.17. Moreover, the Ki in assay [2] (setting [11]) is 40.7 nM.

For `CN(C)[C@@H]1Cc2ccccc2[C@H](c2cccc(-c3ccccc3)c2)C1` [(2S,4S)-3f, (2S,4S)-cis-4-([1,1′-biphenyl]-3-yl)-N,N-dimethyl-1,2,3,4-tetrahydronaphthalen-2-amine], the Ki in assay [4] was 151 nM; in [5], 407 nM.

Consider `CN(C)[C@@H]1Cc2ccccc2[C@H](c2cccc(Br)c2)C1` (single isomer, unassigned) [(2S,4S)-3a, Cis-4-(3-bromophenyl)-N, N-dimethyl-1,2,3,4-tetrahydronaphthalen-2-amine], for which the “pKi 5-HT2CR” value in [1] is recorded as 6.71^(3) 6.93-6.47 7.24^(4) 7.44-7.06. Further, the Ki in assay [6] is 389 nM. Further, the “pKi 5-HT2AR” value in assay [2] is recorded as 6.40^(2) 6.41-6.40 7.50^(3) 7.74-7.33.

On to `O=C(CCCN1CCC2(CC1)C(=O)NCN2c1ccccc1)c1ccc(F)cc1` [[^3H]Spiperone], for which, in [7], the “specific binding to D231F^5.35 5-HT2ARs” value is on record as “no specific binding is detected”.

Regarding `CN(C)[C@@H]1Cc2ccccc2[C@H](c2cccc(-c3ccncc3)c2)C1` (single isomer, unassigned) [(2R,4R)-3e, Cis-4-(3-(pyridin-4-yl)phenyl)-N,N-dimethyl-1,2,3,4-tetrahydronaphthalen-2-amine], in [1], the “pKi 5-HT2CR” value is recorded as 5.90^(2) 5.99-5.80 7.37^(3) 7.44-7.27 5.61^(2) 5.69-5.54 6.26^(2) 6.42-6.10. Also, the Ki was 43.7 nM in assay [2] (setting [11]) and 22.4 nM in assay [8] (pKi H1R, displacement of [^3H]mepyramine, mean of n independent experiments, ± SD where n ≥ 5).

As for `CN(C)[C@@H]1Cc2ccccc2[C@@H](c2cccc(-c3ccncc3)c2)C1` (single isomer, unassigned) [(2R,4S)-2e, Trans-4-(3-(pyridin-4-yl)phenyl)-N,N-dimethyl-1,2,3,4-tetrahydronaphthalen-2-amine], in [1], the “pKi 5-HT2CR” value is reported as 5.90^(2) 5.99-5.80 7.37^(3) 7.44-7.27 5.61^(2) 5.69-5.54 6.26^(2) 6.42-6.10. The “pKi 5-HT2AR” value in [2] is recorded as 6.06^(2) 6.14-5.98 8.13^(3) 8.51-7.82 5.81^(2) 6.01-5.62 7.36^(2) 7.48-7.24.

For the compound `CN(C)[C@@H]1Cc2ccccc2[C@H](c2cccc(-c3ccccc3F)c2)C1` (single isomer, unassigned) [(2R,4R)-3g, Cis-4-(2′-fluoro-[1,1′-biphenyl]-3-yl)-N,N-dimethyl-1,2,3,4-tetrahydronaphthalen-2-amine], the “pKi 5-HT2BR” value in assay [3] is 7.36^(2) 7.36-7.35 7.09^(3) 7.23-6.90 6.53^(3) 6.71-6.30 6.33^(2) 6.49-6.17. This compound also showed a Ki in [2] (setting [11]) of 2.04 nM. Besides, the “pKi H1R” value in [8] was 6.93^(2) 7.02-6.84 8.75^(4) 9.1-8.62 ND 6.54^(2) 6.67-6.40.

As for `CN(C)[C@H]1Cc2ccccc2[C@H](c2cccc(-c3cccs3)c2)C1` [(2R,4S)-2c, (2R,4S)-trans-4-(3-(thiophen-2-yl)phenyl)-N,N-dimethyl-1,2,3,4-tetrahydronaphthalen-2-amine], the figures for the Ki in assay [4], in assay [5] and in assay [2] were 33.1 nM, 214 nM and 19.5 nM, respectively. For the same compound, the “agonist activity at 5-HT2CRs, concentration-response” value in assay [9] (FIG. 7B) is given as “no consistent effect on IP1-accumulation”. For the same compound, the “pKi H1R” value in assay [8] came to 6.90.

With `CN(C)[C@@H]1Cc2ccccc2[C@@H](c2cccc(-c3cccs3)c2)C1` (single isomer, unassigned) [(2S,4R)-2c, Trans-4-(3-(thiophen-2-yl)phenyl)-N,N-dimethyl-1,2,3,4-tetrahydronaphthalen-2-amine], the Ki was 0.832 nM in [1] (pKi at the 5-HT2CR, single experiment excluded from the reported data, excluded: excessive or incomplete radioligand displacement); 79.4 nM in [6]; 3.8 nM in [10]; 2.14 nM in [2]; 1.15 nM in assay [8] (read-out: pKi H1R (converted)). The compound also gave a half-inhibitory concentration (IC50) in [9] of 251 nM. The “inverse agonist efficacy (Imax) at 5-HT2CRs” value in assay [9] (below basal) stood at 58%.
